In one assay the test system is S. aureus FDA-209-p. Nature of the assay: Antimicrobial activity test: MIC by the agar plate dilution method, S. aureus FDA-209-p. The note with it: inoculum 1×10^6 cells/ml. The format is cell-based, Staphylococcus aureus. How it is done: (§1) In order to investigate the in vitro activity of the under-mentioned compounds against various bacteria, the minimal inhibitory concentration (MIC) values were determined by the agar plate dilution method [see Chemotherapy, 22, 1126-1128 (1974)].
(§2) Each test inoculum was adjusted to 1×10^6 cells/ml (O.D., 600 mμ: 0.07-0.16).

A further assay has as its system E. coli No. 29. The assay can be described thus: Antimicrobial activity test: MIC by the agar plate dilution method, E. coli No. 29. To be noted: E. coli No. 29; inoculum 1×10^6 cells/ml. It counts as cell-based. How it is done: as §1, §2
The test system of the next assay is K. pneumoniae NCTC-9632. Nature of the assay: Antimicrobial activity test: MIC by the agar plate dilution method, K. pneumoniae NCTC-9632. To be noted: inoculum 1×10^6 cells/ml. It counts as cell-based. How it is done: as §1, §2
In the next assay the test system is P. mirabilis 1287. Nature of the assay: Antimicrobial activity test: MIC by the agar plate dilution method, P. mirabilis 1287. To be noted: P. mirabilis 1287; inoculum 1×10^6 cells/ml. The format is cell-based. How it is done: as §1, §2
The next assay relates to M. morganii ATCC-25830. The assay can be described thus: Antimicrobial activity test: MIC by the agar plate dilution method, M. morganii ATCC-25830. It counts as cell-based. The note with it: inoculum 1×10^6 cells/ml. How it is done:
as §1, §2

The next assay has as its system S. marcescens IFO-12648. Nature of the assay: Antimicrobial activity test: MIC by the agar plate dilution method, S. marcescens IFO-12648. It counts as cell-based. The method, then:
as §1, §2

For the next assay, the system named is P. aeruginosa NCTC-10490. The assay can be described thus: Antimicrobial activity test: MIC by the agar plate dilution method, P. aeruginosa NCTC-10490. It counts as cell-based. The note with it: inoculum 1×10^6 cells/ml. The method, then: as §1, §2
Where [1] appears, read: S. marcescens IFO-12648, inoculum 1×10^6 cells/ml.

The values below come from US4831026A, “2-oxa-isocephem compounds, compositions containing same and processes of using” (Otsuka Pharmaceutical Co., Ltd., priority 1985, dated 1989).

Read-outs that look alike come from different tables or passages of the source. Where only a bound is given, the exact number is not on record here.

For “Benzhydryl 7-[2-(2-tritylaminothiazol-4-yl)-2-(2fluoroethoxy)iminoacetamido-]-3-[(1,3,4-thiadiazol-2-yl)thiomethyl]-Δ^3 -O-2-isocephem-4-carboxylate (syn-isomer) [Example 48]”, the MIC (as a rule, the least concentration at which growth counts as inhibited) against S. aureus FDA-209-p was 0.78 µg/mL; with E. coli No. 29, ≤ 0.025 µg/mL; in the assay on K. pneumoniae NCTC-9632, 0.2 µg/mL; in the assay on P. mirabilis 1287, ≤ 0.025 µg/mL; against M. morganii ATCC-25830, ≤ 0.025 µg/mL; with S. marcescens IFO-12648, 0.39 µg/mL. For the same substance, the MIC with P. aeruginosa NCTC-10490 is 6.25 µg/mL.
Regarding “Benzhydryl 7-[2-(2-tritylaminothiazol-4-yl)-2-[(1-tritylpyrazol-3-yl)methoxyiminoacetamido]-3-[(1,3,4-thiadiazol-2-yl)thiomethyl]-Δ^3 -O-2-isocephem-4-carboxylate (syn-isomer) [Example 23]”, the MIC against S. aureus FDA-209-p was 6.25 µg/mL; against E. coli No. 29 it was 0.2 µg/mL; against K. pneumoniae NCTC-9632, 0.1 µg/mL; in the assay with P. mirabilis 1287, ≤ 0.025 µg/mL; with M. morganii ATCC-25830, 0.1 µg/mL; against S. marcescens IFO-12648, 0.39 µg/mL. The substance also gave an MIC in the assay with P. aeruginosa NCTC-10490 of 12.5 µg/mL.
In the case of “Benzhydryl 7-[2-(2-tritylaminothiazol-4-yl)-2-[(2-butenyl)oxyimino]acetamido]-3-[(1,3,4-thiadiazol-2-yl)thiomethyl]-Δ^3 -O-2-isocephem-4-carboxylate (syn-isomer) [Example 37]”, the MIC amounted to 0.78 µg/mL against S. aureus FDA-209-p; 0.2 µg/mL in the assay on E. coli No. 29; 0.39 µg/mL in the assay with K. pneumoniae NCTC-9632; 0.2 µg/mL in the assay on P. mirabilis 1287; 0.78 µg/mL in the assay on M. morganii ATCC-25830; 1.56 µg/mL against S. marcescens IFO-12648 (setting [1]). In the assay on P. aeruginosa NCTC-10490, this substance showed an MIC of 1.56 µg/mL.
Turning to “Benzhydryl 7-[2-(2-tritylaminothiazol-4-yl)-2-cyclopropylmethyloxyiminoacetamido-]-3- (1,3,4-thiadiazol-2-yl)thiomethyl]-Δ^3 -O-2-isocephem-4-carboxylate (syn-isomer) [Example 35]”, the MIC worked out at 0.2 µg/mL in the assay on S. aureus FDA-209-p; 0.2 µg/mL in the assay with E. coli No. 29; 0.2 µg/mL with K. pneumoniae NCTC-9632; 0.2 µg/mL in the assay with P. mirabilis 1287; 0.39 µg/mL in the assay with M. morganii ATCC-25830; 0.39 µg/mL in the assay on S. marcescens IFO-12648. In the assay with P. aeruginosa NCTC-10490, this substance came in with an MIC of 0.39 µg/mL.
On to “Benzhydryl 7-[2-(2-tritylaminothiazol-4-yl)-2-propargyloxyiminoacetamido]-3-[(1,3,4-thiadiazol-2-yl)thiomethyl]-Δ^3 -O-2-isocephem-4-carboxylate (syn-isomer) [Example 21]”, for which the MIC in the assay with S. aureus FDA-209-p is 3.13 µg/mL; against E. coli No. 29 it was 0.1 µg/mL; against K. pneumoniae NCTC-9632, 0.2 µg/mL; against P. mirabilis 1287, ≤ 0.025 µg/mL; in the assay on M. morganii ATCC-25830, 0.05 µg/mL; with S. marcescens IFO-12648 it was 0.39 µg/mL. The MIC in the assay with P. aeruginosa NCTC-10490 came to 3.13 µg/mL.
On to “Benzhydryl 7-[2-(2-tritylaminothiazol-4-yl)-2cyanomethyloxyiminoacetamido-]-3-[(1,3,4-thiadiazol-2-yl)thiomethyl]-Δ^3 -O-2-isocephem-4-carboxylate (syn-isomer) [Example 41]”, for which the MIC in the assay with S. aureus FDA-209-p is 0.39 µg/mL; with E. coli No. 29 it was 0.2 µg/mL; against K. pneumoniae NCTC-9632 it was 0.39 µg/mL; against P. mirabilis 1287 it was 0.2 µg/mL; in the assay with M. morganii ATCC-25830 it was 0.78 µg/mL; with S. marcescens IFO-12648 (setting [1]) it was 1.56 µg/mL. For the same substance, the MIC in the assay on P. aeruginosa NCTC-10490 stood at 0.78 µg/mL.
As for “Benzhydryl (6S,7S)-7-[2-(2-aminothiazol-4-yl)-2-methoxyiminoacetamido]-3-[(1,3,4-thiadiazol-2-yl)thiomethyl]-Δ^3 -O-2-isocephem-4-carboxylate (syn-isomer) [Example 59]”, the MIC in the assay on S. aureus FDA-209-p is 0.39 µg/mL; against E. coli No. 29, ≤ 0.025 µg/mL; against K. pneumoniae NCTC-9632, ≤ 0.025 µg/mL; in the assay on P. mirabilis 1287 it was ≤ 0.025 µg/mL; with M. morganii ATCC-25830, ≤ 0.025 µg/mL; against S. marcescens IFO-12648, 0.39 µg/mL. Moreover, in the assay with P. aeruginosa NCTC-10490, the MIC stood at 25 µg/mL.
Consider “Benzyl7-[2-(2-aminothiazol-4-yl)-2-methoxyiminoacetamido]-3-[(carbamoyloxy)methyl]-Δ^3 -O-2-isocephem-4-carboxylate (syn-isomer) [Example 3]”, for which the MIC is 0.39 µg/mL in the assay with S. aureus FDA-209-p; 0.2 µg/mL in the assay with E. coli No. 29; 0.39 µg/mL in the assay with K. pneumoniae NCTC-9632; ≤ 0.025 µg/mL in the assay on P. mirabilis 1287; ≤ 0.025 µg/mL in the assay with M. morganii ATCC-25830; 0.39 µg/mL in the assay on S. marcescens IFO-12648. In the assay with P. aeruginosa NCTC-10490, this substance displayed an MIC of 1.56 µg/mL.
Take “Benzyl 7-[2-(2-chloroacetamidothiazol-4-yl)-2-(tert-butoxycarbonylmethoxyimino)acetamido]-3-[(1,3,4-thiadiazol-2-yl)thiomethyl]-Δ^3 -O-2-isocephem-4carboxylate (syn-isomer) [Example 2]”: the MIC against S. aureus FDA-209-p is 0.78 µg/mL; against E. coli No. 29, 0.05 µg/mL; in the assay on K. pneumoniae NCTC-9632 it was 0.2 µg/mL; in the assay on P. mirabilis 1287 it was ≤ 0.025 µg/mL; against M. morganii ATCC-25830, ≤ 0.025 µg/mL; against S. marcescens IFO-12648 (setting [1]) it was 0.2 µg/mL. For the same substance, in the assay with P. aeruginosa NCTC-10490, the MIC is 3.13 µg/mL.
Consider “Benzyl 7-[2-(2-chloroacetamidothiazol-4-yl)-2-cyclopentyloxyiminoacetamido]-3-[(1,3,4-thiadiazol-2- yl)thiomethyl]-Δ^3 -O-2-isocephem-4-carboxylate (syn-isomer) [Example 25]”, for which the MIC with S. aureus FDA-209-p is 1.56 µg/mL; against E. coli No. 29 it was ≤ 0.025 µg/mL; with K. pneumoniae NCTC-9632, 0.05 µg/mL; in the assay on P. mirabilis 1287, ≤ 0.025 µg/mL; with M. morganii ATCC-25830 it was ≤ 0.025 µg/mL; in the assay with S. marcescens IFO-12648 (setting [1]), 0.2 µg/mL. Also, the MIC with P. aeruginosa NCTC-10490 came out at 0.78 µg/mL.
For “Benzyl 7-[2-(2-trichloroacetamidothiazol-4-yl)-2-methoxyiminoacetamido]-3-[(carbamoyloxy)methyl]-Δ^3 -O-2-isocephem-4-carboxylate (syn-isomer) [Example 5]”, the MIC is 3.13 µg/mL against S. aureus FDA-209-p; 0.1 µg/mL against E. coli No. 29; 0.1 µg/mL with K. pneumoniae NCTC-9632; ≤ 0.025 µg/mL against P. mirabilis 1287; 0.05 µg/mL against M. morganii ATCC-25830; 0.2 µg/mL against S. marcescens IFO-12648 (setting [1]). The substance also came in with an MIC in the assay with P. aeruginosa NCTC-10490 of 25 µg/mL.
As for “Benzyl 7-[2-(2-trifluoroacetamidothiazol-4-yl)-2-methoxyiminoacetamido]-3-[(carbamoyloxy)methyl]-Δ^3 -O-2-isocephem-4-carboxylate (syn-isomer) [Example 4]”, the MIC is 0.78 µg/mL in the assay with S. aureus FDA-209-p; 0.05 µg/mL against E. coli No. 29; 0.1 µg/mL in the assay on K. pneumoniae NCTC-9632; ≤ 0.025 µg/mL against P. mirabilis 1287; ≤ 0.025 µg/mL against M. morganii ATCC-25830; 0.2 µg/mL against S. marcescens IFO-12648 (setting [1]). Also, the MIC in the assay with P. aeruginosa NCTC-10490 stood at 6.25 µg/mL.
